In test [1] the target is helicase domain of the Pol θ protein (Homo sapiens, UniProt O75417). The format is biochemical.
Protocol: Biochemical Activity Assay (ADP Glo Assay) of Pol θ Inhibitor
The specific assay method was as follows: • 1) The helicase domain of the Pol θ protein was purified by an insect system, to obtain the protein with a purity of >90%. ssDNA (5'-[sequence]-3', Hangzhou Yocon Biotechnology Co., Ltd.) was ordered as the substrate for the Pol θ protein; and a reaction buffer containing 10 mM DTT (Dithiothreitol), 20 mM MgCl2 and Tris-HCl pH 7.5 was prepared. • 2) The 2x ssDNA-Pol θ premix was prepared; the reaction was conducted in a 384-well plate; a control group with only buffer is set, and the premix was added to the rest of the groups.
Another test relates to DLD1 wild type. The experiment in a line: Cell viability assay (CTG assay), DLD1 wild type cells. The format is cell-based. The following applies: Homo sapiens, DLD-1, 240 h; CellTiter Glo, read on Day 10, initial concentration 30 µM. On the procedure:
(§1) 2. Cell Viability Assay of Pol θ Inhibitor
(§2) The cell viability assay, i.e., the commonly used CTG assay, was conducted for the efficacy of the inhibitor in vitro using the CellTiter Glo reagent (Promega, G7573).
A general note: Cellular ATP, detected with luciferase, serves as a proxy for viable cell number.

In a further test the test system is DLD1 BRCA2-/- cells. Put plainly: Cell viability assay (CTG assay), DLD1 BRCA2-/- cells. It counts as cell-based. The following applies: Homo sapiens, DLD-1, 240 h; CellTiter Glo, read on Day 10, initial concentration 30 µM. On the procedure:
as §1, §2

Setting [2] is: ATPase activity, ADP-Glo, ssDNA substrate, 60 min at room temperature, initial concentration 10 µM, read-out: Biochemical experiment IC50.

Each structure is given as a SMILES string. Like-named read-outs stand apart in the source and are kept apart here. Bounds are passed on as bounds.

This passage reports IC50 results from patent publication EP4741390A1, “BIARYL RING COMPOUND, INTERMEDIATE THEREOF, PREPARATION METHOD THEREFOR AND USE THEREOF” (Hangzhou Synrx Therapeutics Biomedical Technology Co., Ltd., priority 2023, dated 2025).

Sequence of helicase domain of the Pol θ protein (O75417 102-554 limits assumed): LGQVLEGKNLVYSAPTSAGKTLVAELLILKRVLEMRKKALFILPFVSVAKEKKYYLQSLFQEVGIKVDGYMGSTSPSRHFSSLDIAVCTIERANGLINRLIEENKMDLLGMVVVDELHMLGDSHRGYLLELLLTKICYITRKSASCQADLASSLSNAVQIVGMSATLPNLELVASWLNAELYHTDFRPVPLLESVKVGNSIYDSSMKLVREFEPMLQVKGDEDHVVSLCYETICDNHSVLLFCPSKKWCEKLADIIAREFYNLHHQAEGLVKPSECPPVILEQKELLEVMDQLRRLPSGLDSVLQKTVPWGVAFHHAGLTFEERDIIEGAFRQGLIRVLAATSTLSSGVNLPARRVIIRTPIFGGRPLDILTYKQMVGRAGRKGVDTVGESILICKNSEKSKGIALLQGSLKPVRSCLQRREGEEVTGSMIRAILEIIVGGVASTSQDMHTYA

As a reminder, the IC50 is the concentration that inhibits the measured activity by half. Consider `COc1cnc(C(F)F)cc1-c1cc(-n2cccc(F)c2=O)ncc1C(=O)Nc1nc(-c2ncccn2)ns1` [Example 18, 2"-(difluoromethyl)-3-fluoro-5"-methoxy-2-oxo-N-(3-(pyrimidin-2-yl)-1,2,4-thiadiazol-5-yl)-2H-[1,2':4',4"-terpyridine]-5'-carboxamide], for which the values for the IC50 (in test [1] (setting [2]); with DLD1 wild type; in the test on DLD1 BRCA2-/- cells) were 0.0251 µM, 4300 nM and 5.62 nM, respectively.

With `COc1cnc(C(F)F)cc1-c1cc(-n2cccc(F)c2=O)ncc1C(=O)Nc1nc(-c2ccccn2)ns1` [Example 8, 2"-(difluoromethyl)-3-fluoro-5"-methoxy-2-oxo-N-(3-(pyridin-2-yl)-1,2,4-thiadiazol-5-yl)-2H-[1,2':4',4"-terpyridine]-5'-carboxamide], the IC50 in test [1] (setting [2]) was 0.00823 µM; with DLD1 wild type it was 19200 nM; with DLD1 BRCA2-/- cells it was 56.2 nM.

For the compound `COc1cnc(C(F)F)cc1-c1cc(-n2cccc(F)c2=O)ncc1C(=O)Nc1nc(C)ns1` [Example 11, 2"-(difluoromethyl)-3-fluoro-5"-methoxy-N-(3-methyl-1,2,4-thiadiazol-5-yl)-2-oxo-2H-[1,2':4',4"-terpyridine]-5'-carboxamide], the IC50 is 0.014 µM in test [1] (setting [2]), over 50000 nM with DLD1 wild type and 171 nM in the test on DLD1 BRCA2-/- cells.

As for `COc1cnc(C(F)F)cc1-c1cc(-n2cccc(F)c2=O)ncc1C(=O)Nc1nc(-c2c(C)ncn2C)ns1` [Example 32, 2"-(difluoromethyl)-N-(3-(1,4-dimethyl-1H-imidazol-5-yl)-1,2,4-thiadiazol-5-yl)-3-fluoro-5"-methoxy-2-oxo-2H-[1,2':4',4"-terpyridin]-5'-carboxamide], the IC50 in test [1] (setting [2]) was 0.00611 µM; with DLD1 wild type it was over 5000 nM; with DLD1 BRCA2-/- cells, 13.1 nM.

For the compound `COc1cnc(C(F)F)cc1-c1cc(-n2cccc(F)c2=O)ncc1C(=O)Nc1nc(-c2ccncc2)ns1` [Example 15, 2"-(difluoromethyl)-3-fluoro-5"-methoxy-2-oxo-N-(3-(pyridin-4-yl)-1,2,4-thiadiazol-5-yl)-2H-[1,2':4',4"-terpyridine]-5'-carboxamide], the IC50 is 0.00558 µM in test [1] (setting [2]), over 5000 nM in the test with DLD1 wild type and 10.8 nM with DLD1 BRCA2-/- cells.

For `COc1cnc(Cl)cc1-c1cc(-n2cccc(F)c2=O)ncc1C(=O)Nc1nc(-c2c(C)cnn2C)ns1` [Example 26, 2"-chloro-N-(3-(1,4-dimethyl-1H-pyrazol-5-yl)-1,2,4-thiadiazol-5-yl)-3-fluoro-5"-methoxy-2-oxo-2H-[1,2':4',4"-terpyridin]-5'-carboxamide], the IC50 was 0.00229 µM in test [1] (setting [2]), over 5000 nM in the test with DLD1 wild type and 0.82 nM in the test on DLD1 BRCA2-/- cells.

Turning to `COc1cnc(C(F)F)cc1-c1cc(-n2cccc(F)c2=O)ncc1C(=O)Nc1nc(Cl)ns1` [Example 20, N-(3-chloro-1,2,4-thiadiazol-5-yl)-2"-(difluoromethyl)-3-fluoro-5"-methoxy-2-oxo-2H-[1,2':4',4"-terpyridine]-5'-carboxamide], the IC50 in test [1] (setting [2]) is 0.00831 µM; in the test with DLD1 wild type, over 5000 nM; in the test on DLD1 BRCA2-/- cells, 22.4 nM.

For the compound `COc1cnc(C(F)F)cc1-c1cc(-n2cccc(F)c2=O)ncc1C(=O)Nc1nc(-c2cccnc2)ns1` [Example 13, 2"-(difluoromethyl)-3-fluoro-5"-methoxy-2-oxo-N-(3-(pyridin-3-yl)-1,2,4-thiadiazol-5-yl)-2H-[1,2':4',4"-terpyridine]-5'-carboxamide], the IC50 was 0.0176 µM in test [1] (setting [2]), over 50000 nM in the test on DLD1 wild type and 54.1 nM in the test with DLD1 BRCA2-/- cells.

For `COc1cnc(C(F)F)cc1-c1cc(-n2cccc(F)c2=O)ncc1C(=O)Nc1nc(C2CCC2)ns1` [Example 33, N-(3-cyclobutyl-1,2,4-thiadiazol-5-yl)-2"-(difluoromethyl)-3-fluoro-5"-methoxy-2-oxo-2H-[1,2":4'4"-bipyridin]-5'-carboxamide], the IC50 in test [1] was 0.00411 µM; in the test with DLD1 wild type, over 5000 nM; in the test with DLD1 BRCA2-/- cells, 8.57 nM.
